Tests used:
[1] = tested on: N-terminal c-Jun kinase (JNK); assay: Solid-phase kinase assay of N-terminal c-Jun kinase activity in HeLa cell extracts; assay type: cell-based, human; details: HeLa S3 cells, TPA 100 ng/ml
Description: (§1) Cell extracts were diluted so that the final composition of the WCE buffer was 20 mM HEPES pH 7.7, 75 mM NaCl, 2.5 mM MgCl2, 0.1 mM EDTA, 0.05% Triton X-100, 0.5 mM DTT, 20 mM β-glycerolphosphate, 0.1 mM Na3VO4, 2 μg/ml leupeptin, 100 μg/ml PMSF. The extracts were mixed with 10 μl of GSH-agarose suspension (Sigma) to which 10 μg of either GST or GST-Jun fusion proteins were bound. The mixture was rotated at 4° C. for 3 hours in a microfuge tube and pelleted by centrifugation at 10,000×g for 20 sec. After 4×1 ml washes in HEPES binding buffer (20 mM HEPES pH 7.7, 50 mM NaCl, 2.5 mM MgCl2, 0.1 mM EDTA, 0.05% Triton X-100), the pelleted beads were resuspended in 30 μl of kinase buffer (20 mM HEPES pH 7.6, 20 mM MgCl2, 20 mM β-glycerolphosphate, […] p-nitrophenyl phosphate, 0.1 mM Na3VO4, 2 mM DTT) containing 20 μM ATP and 5 μCi γ-^32P-ATP. After 20 minutes at 30° C. the reaction was terminated by washing with HEPES binding buffer. Phosphorylated proteins were eluted with 30 μl of 1.5×Laemlli sample buffer and resolved on a 10% SDS polyacrylamide gel, followed by autoradiography. Quantitation of phosphate incorporated was determined by gel slicing and scintillation counting. Phosphorylated GST fusion proteins were eluted from gel slices and subjected to phosphopeptide mapping as described (Boyle, et al., supra, 1991). […]

[2] = tested on: N-terminal c-Jun kinase (JNK); assay: Solid-phase kinase assay of N-terminal c-Jun kinase activity in Jurkat cell extracts; assay type: cell-based, human; details: Jurkat cells, TPA 50 ng/ml, after 30 minutes
Description: as §1

[3] = tested on: JNK1; assay: Epitope-tagged JNK1 protein kinase activity in transfected COS cells; assay type: cell-based; details: 10 nM EGF or 100 nM TPA
Description: JNK1 protein kinase activity was detected in the immune-complex. Immunecomplex kinase assays using either M2 immunoprecipitates or purified JNK1, JNK-46, and ERK1 or ERK2 were performed at 30° C. for 20 mins using 3 μg of substrate, 20 μM ATP and 5 μCi of [γ-^32P]ATP in 30 μl of kinase buffer (25 mM Hepes (pH 7.6), 20 mM MgCl2, 20 mM β-glycerophosphate, 20 mM p-nitrophenyl phosphate, 0.1 mM Na orthovanadate, 2 mM DTT). The reactions were terminated with Laemmli sample buffer and the products were resolved by SDS-PAGE (12% gel). JNK1 protein activity was also measured after SDS-PAGE by the in-gel kinase assay with the substrate GST-cJun(1-79) as described by Hibi, et al., supra, (1993). Solid-phase protein kinase assays were performed as described by Hibi, et al., supra, (1993). Clarified cell extracts were incubated with GST fusion proteins immobilized on GSH-agarose beads. After 3 hours at 4° C., the beads were washed extensively and bound JNK1 was detected by the addition of [γ-^32P]ATP. The reaction was terminated after 10 mins at 30° C. and the products were resolved by SDS-PAGE. The incorporation of [^32P]phosphate was visualized by autoradiography and quantitated with a phosphorimager and ImageQuant software (Molecular Dynamics Inc., Sunnyvale, Calif.). The methods used for phosphopeptide mapping (Boyle, et al., Cell 64:573-584, 1991) and phosphoamino acid analysis (Alvarez, et al., J. Biol. Chem 266:15227-15285, 1991) were described previously.
Epitope-tagged JNK1 was expressed in COS cells. Control experiments were performed using mock-transfected cells. After 48 hours, the cells were treated either without or with 100 nM TPA, 10 nM EGF, or 80 J/m^2 UV-C and incubated for 1 hr. The cells were lysed in RIPA buffer and the JNK1 proteins were isolated by immunoprecipitation with the M2 monoclonal antibody. JNK1 protein kinase activity was measured after SDS-PAGE using an in-gel kinase assay with the substrate GST-cJun(1-79) polymerized into the gel.
COS-1 cells were maintained in. Dulbecco's modified Eagle's medium supplemented with 5% […] (Gibco-BRL). Metabolic labeling with [^32P]phosphate was performed by incubation of cells in phosphate-free modified Eagle's medium (Flow Laboratories Inc.) supplemented with 0.1% fetal bovine serum and 1 mCi/ml [^32P]orthophosphate (Dupont-NEN). COS cells were treated with 10 nM EGF or 100 nM thorbol myristate acetate. The cells were then incubated for defined times at 37° C. prior to harvesting and measurement of JNK1 protein kinase activity. The data are presented as arbitrary units. […] In contrast, exposure to UV radiation caused a marked increase in JNK1 activity.

## CCCCCCCCCCCCCC(=O)O[C@@H]1[C@@H](C)[C@@]2(O)[C@@H](C=C(CO)C[C@]3(O)C(=O)C(C)=C[C@@H]23)[C@H]2C(C)(C)[C@]12OC(C)=O [TPA]
[1]
  N-terminal c-Jun kinase activity, effect of treatment: minor compared to that of UV
[2]
  N-terminal kinase activity, activation: 25 fold
[3]
  JNK1 activation: low level of JNK1 activation
  duration of JNK1 activation: approximately 2 hours

— patent US6706509B2, “Oncoprotein protein kinase” (The Regents of the University of California, priority 1993, dated 2004)
